Patent US20030124132A1 (University of Texas, published 2003)

Experiments:
[1] = system: L540rec human Hodgkin's lymphoma tumors; test: Tumor tissue necrosis in L540 Hodgkin's lymphoma-bearing mice after tTF and/or endotoxin; format: in vivo, SCID mice
Experimental: For in vivo studies, a metastasizing mouse model for human Hodgkin's lymphoma was used. 1×10^7 L540rec cells were injected subcutaneously into the right flank of SCID mice resulting in a subcutaneous tumor with lymph node metastases in the regional lymph node stations. Subcutanous tumors were measured with a caliper in three perpendicular directions a. b, and c, and volumes calculated according to the formula V=π/6×a×b×c.
(§1) Treatment was initiated when subcutaneous tumors reached a size of 150 to 300 μl. Reagents were administered into the lateral tail vein.
(§2) Mice were closely observed after treatment for clinical signs of toxicity and clinical status was documented at defined time points (5 minutes, 10 minutes, 15 minutes, 30 minutes. 1 hour, 2 hours, 24 hours, 48 hours, 72 hours). Blood samples were taken from the tail vein at 1 hour, 2 hours and 24 hours to measure TNFα blood levels. Three days after treatment, the mice were anesthetized, blood samples were taken from the vena cava for coagulation tests, and an autopsy was performed to document any changes in gross pathology. Tumors, lymph node metastases and the major normal organs (heart, lung, brain, liver, kidney, colon, spleen, pancreas) were harvested and prepared for histological analysis.
(§3) Tissue samples harvested at the time of autopsy were fixed in 3% NBF (normal buffered formalin) and embedded in paraffin wax. Tissue blocs were cut, dewaxed and stained with hematoxilin and eosin (H&E). Tissue sections were analyzed on a light microscope by two independent investigators and histological findings were documented. Tumor sections with necrotic areas were scanned with a GS-700 imaging densitometer (Biorad, Hercules, Calif.) and areas of necrosis were calculated as % of total section area. Statistical Analysis was performed using SPSS software (SPSS Science Software, Erkrath, Germany) applying the Mann-Whitney-U-test for ungrouped data.

[2] = Clinical signs of toxicity and histology of normal organs in treated tumor-bearing mice; format: in vivo, SCID mice; conditions: for Symptoms (clinical signs of toxicity): endotoxin-free tTF alone
Experimental: as §1, §2, §3

[3] = system: L540 tumors; test: Anti-tumor activity of anti-VCAM-1·tTF coaguligand in L540 tumors; format: in vivo, SCID mice; conditions: controls
Experimental: The anti-tumor activity of anti-VCAM-1-tTF coaguligand was determined in SCID mice bearing 0.3-0.4 cm^3 L540 tumors. The drug was administered i.v. 3 times at intervals of 4 days.

[4] = system: C1300 (Muγ) tumors; test: Coaguligand (B21-2/10H10 + tTF) treatment of C1300 (Muγ) tumors; format: in vivo, BALB/c nu/nu mice; conditions: paraffin sections, 30 minutes to 24 hours after administration
Source text: To improve the C1300 (Muγ) tumor model, the C1300 (Muγ) cell line was subcloned into a cell line that can grow without being mixed with its parental cell, C1300, but still express the I-A^d MHC Class II antigen on the endothelial cells of the tumor. […] Vessels in other normal tissues were unstained.
Vessels contained platelet aggregates, packed red cells and fibrin. At this time, tumor-cells were viable, being indistinguishable morphologically from tumor cells in untreated mice. […]
To establish tumors, 10^6 to 1.5×10^7 tumor cells were injected subcutaneously into the right anterior flank of the mice. […] Other mice received equivalent quantities IgG, Fab′ or bispecific antibody alone. […]
Twenty-four hours after being injected with tTF or immunoglobulin-tTF conjugates, the mice were anesthetized with metophane and were exsanguinated by perfusion with heparinized saline. […] Blood vessels having open lumens containing erythrocytes and blood vessels containing thrombi were counted. […]
Other mice received equivalent quantities of bispecific antibody alone. […] Perpendicular tumor diameters were measured at regular intervals and tumor volumes were calculated.

[5] = system: C1300 Muγ tumors; test: Anti-tumor effects of tTF and immunoglobulin-tTF in C1300 Muγ tumors; format: in vivo, nu/nu mice; conditions: tTF alone or mixed with control bispecific antibodies
Experimental: The tumor test systems were: i) L540 human Hodgkin's disease tumors growing in SCID mice; ii) C1300 Muγ (interferon-secreting) neuroblastoma growing in nu/nu mice; iii) H460 human non-small cell lung carcinoma growing in nu/nu mice. To establish solid tumors, 1.5×10^7 tumor cells were injected subcutaneously into the right anterior flank of SCID or BALB/c nu/nu mice (Charles River Labs., Wilmingham, Mass.). When the tumors had grown to various diameters, mice were assigned to different experimental groups, each containing 4 to 9 mice.
Other mice received equivalent quantities of bispecific antibody alone. The injections were performed over ˜45 seconds into one of the tail veins, followed by 200 μl of saline. The infusions were repeated six days later. Perpendicular tumor diameters were measured at regular intervals and tumor volumes were calculated.
Mice bearing small (300 mm^3) C1300 Muγ tumors were injected intravenously with 16-20 μg tTF219. The treatment was repeated one week later. […] One week after the second treatment with tTF219, tumors were 60% of the size of tumors in mice receiving diluent alone. The greater effectiveness of the second injection probably derives from the greater thrombotic action of tTF219 on vessels in large tumors, observed above.
Mice bearing small (300 mm^3) subcutaneous C1300 Muγtumors were treated with tTF219 or with a complex of tTF219 and a bispecific antibody, OX7 Fab′/10H10 Fab′, not directed to a component of the tumor environment. The treatment was repeated 6 days later.

## tTF: extracellular domain of the mature Tissue Factor protein (amino acid 1-219), recombinant; depyrogenated in Example X
[1]; Table 2, tTF alone, three days after i.v. treatment
  % tumor necrosis: 4%
[1]; endotoxin-free tTF alone, 4 μg or 16 μg i.v., three days after treatment
  tumor tissue necrosis: 0%
[1]; tTF alone, 4 μg to 16 μg
  anti-tumor effect: no anti-tumor effect
[1]; tTF alone, 100 μg
  anti-tumor effect: anti-tumor effects begin to appear
[2]
  Symptoms (clinical signs of toxicity): no clinical signs of toxicity
[2]; listed as TTF
  Symptoms (clinical signs of toxicity): None
[2]; light microscopy, three days after treatment
  histology of normal organs (necrosis, thrombosis, abnormalities): No histological abnormalities were seen
[3]
  effect on tumor growth: did not affect tumor growth
[4]
  thrombi or abnormalities in normal organs: neither thrombi, nor histological or morphological abnormalities were visible
[5]
  tumor growth versus antibodies or saline alone: grew significantly more slowly
